Measurements reported in paper PMC10916352, “Safety Evaluation of a Prototypical Diazirine-Based Covalent Crosslinker and Molecular Adhesive” (International Journal of Toxicology, 2023).
Values joined by “and” are separate entries in the source; they are usually repeats but may differ in a detail not shown here. Equal entries are not always repeated.

Tested on: isolated bovine cornea
Test: Bovine Corneal Opacity and Permeability test (BCOP)
Design: key to Mean Opacity Change: mean of final − initial opacity; opacity = (I0/I − 0.9894)/0.0251
Experimental: The BCOP Assay was performed to evaluate the eye hazard potential of BondLynx, as measured by its ability to induce opacity and increase permeability in an isolated bovine cornea. The BCOP is an in vitro model that provides short-term maintenance of normal physiological and biological function of the bovine cornea in an isolated system so that eye damage can be assessed by quantitative measurements of changes in corneal opacity and permeability.[45],[46]
Tests were performed using bovine corneas isolated from the eyes of young cattle after slaughter and transported in biological saline under cooled conditions. […] BondLynx was ground with a mortar and pestle and applied directly to the corneas as a solid. Tests were performed in triplicate.
Bovine eyes were checked for unacceptable defects, such as opacity, scratches, pigmentation, and neovascularization upon receipt by removing them from the physiological saline and holding them in the light. Corneas were isolated from acceptable specimens and stored in a petri dish with cMEM (Eagle’s Minimum Essential Medium with 1% v/v L-glutamine and 1% v/v foetal bovine serum) at 32 ± 1°C. Isolated corneas were mounted in a corneal holder with the endothelial side against the O-ring of the posterior half of the holder and the anterior half of the holder tightened on top of the cornea with screws. The compartments of the corneal holder were filled with cMEM and the corneas were incubated for a minimum of 1 h at 32 ± 1°C. The initial corneal opacity was determined by replacing the medium in both compartments with fresh cMEM and using an opacitometer to measure the opacity against a cMEM filled chamber. Only corneas with an initial opacity <7 were used for testing.
A total of three samples were prepared for each test item by removing the medium from the anterior compartment of the holder and applying 750 μL of positive or negative control, or 306.6-333.6 mg of BondLynx. The corneal holders were positioned so that the test item uniformly covered the cornea within, and the entire assembly was incubated at 32 ± 1°C for 240 ± 10 min. The test item was then removed, and the epithelium was washed at least three times with MEM containing phenol red. Corneas were visually inspected for pH effects and dissimilar opacity patterns before refilling both compartments with fresh cMEM.
Corneal opacity was measured by the diminution of light (I = luminous flux per area) passing through the cornea. The opacity value was calculated according to the formula: Opacity=I0/I−0.9894/0.0251 where I0 is the empirically determined illuminance through a cornea holder with just windows and medium and I is the measured illuminance through a holder with a cornea. The change in opacity for each individual cornea was calculated by subtracting the initial opacity from the final post-treatment reading, and the corrected opacity was calculated by subtracting the average change in opacity of the negative control corneas (if > 0) from the change in opacity for corneas treated with BondLynx or positive control.
Following the final opacity measurement, permeability of the cornea to Na-fluorescein was evaluated by removing the medium from both corneal holder compartments, then refilling the posterior compartment with fresh cMEM and the anterior compartment with 1 mL of Na-fluorescein in cMEM (5 mg/mL). The corneal holders were positioned so that the test item uniformly covered the cornea within, and the entire assembly was incubated at 32 ± 1°C for 90 ± 5 min. The medium from the posterior compartment was then removed, and a 360 μL aliquot was placed in a 96-well plate to measure the OD490 in triplicate. Any sample with an OD490 that was 1.500 or higher was diluted to bring the OD490 into the acceptable range. The corrected OD490 was calculated by subtracting the average change in OD490 for the negative control (if > 0) from the change in OD490 of either BondLynx or positive control treated cornea.

FC(F)(F)C1(c2ccc(C(c3ccc(C4(C(F)(F)F)N=N4)cc3)(C(F)(F)F)C(F)(F)F)cc2)N=N1 [BondLynx, 2,2-bis-[4-[3-(trifluoromethyl)-3H-diazirin-3-yl]phenyl]hexafluoropropane]
Opacity (240 min exposure, individual corneas): 0.9 and 0.7
Appearance of corneas after treatment (240 min of treatment): clear
UN GHS eye damage classification (IVIS <3: No Category): does not require classification for eye damage or irritation
pH effects in the rinsing medium (after 240 min exposure): No pH effects
Corrected Opacity Change (individual corneas): 1.6 and 0.9 and 0.7
Final Opacity (individual corneas, after 240 min treatment): 1.9 and 0.9 and 2.5
Initial Opacity (individual corneas, before treatment): 0.3 and 0 and 1.8
Opacity Change (individual corneas, final minus initial): 1.6 and 0.9 and 0.7
IVIS (individual corneas, opacity + 15 × OD490): 0.9 and 1.0
Mean IVIS ± SD (three corneas): 1.2 ± 0.4
Mean Opacity Change (three corneas): 1.1
